Holding throughout (format): cell-based
One experiment addresses T1, human TLR8 (Homo sapiens, UniProt Q9NR97).
T1 construct: host or cells: HEK-Blue cells (HEK293-derived reporter line)
T1 sequence (Q9NR97 27-1041): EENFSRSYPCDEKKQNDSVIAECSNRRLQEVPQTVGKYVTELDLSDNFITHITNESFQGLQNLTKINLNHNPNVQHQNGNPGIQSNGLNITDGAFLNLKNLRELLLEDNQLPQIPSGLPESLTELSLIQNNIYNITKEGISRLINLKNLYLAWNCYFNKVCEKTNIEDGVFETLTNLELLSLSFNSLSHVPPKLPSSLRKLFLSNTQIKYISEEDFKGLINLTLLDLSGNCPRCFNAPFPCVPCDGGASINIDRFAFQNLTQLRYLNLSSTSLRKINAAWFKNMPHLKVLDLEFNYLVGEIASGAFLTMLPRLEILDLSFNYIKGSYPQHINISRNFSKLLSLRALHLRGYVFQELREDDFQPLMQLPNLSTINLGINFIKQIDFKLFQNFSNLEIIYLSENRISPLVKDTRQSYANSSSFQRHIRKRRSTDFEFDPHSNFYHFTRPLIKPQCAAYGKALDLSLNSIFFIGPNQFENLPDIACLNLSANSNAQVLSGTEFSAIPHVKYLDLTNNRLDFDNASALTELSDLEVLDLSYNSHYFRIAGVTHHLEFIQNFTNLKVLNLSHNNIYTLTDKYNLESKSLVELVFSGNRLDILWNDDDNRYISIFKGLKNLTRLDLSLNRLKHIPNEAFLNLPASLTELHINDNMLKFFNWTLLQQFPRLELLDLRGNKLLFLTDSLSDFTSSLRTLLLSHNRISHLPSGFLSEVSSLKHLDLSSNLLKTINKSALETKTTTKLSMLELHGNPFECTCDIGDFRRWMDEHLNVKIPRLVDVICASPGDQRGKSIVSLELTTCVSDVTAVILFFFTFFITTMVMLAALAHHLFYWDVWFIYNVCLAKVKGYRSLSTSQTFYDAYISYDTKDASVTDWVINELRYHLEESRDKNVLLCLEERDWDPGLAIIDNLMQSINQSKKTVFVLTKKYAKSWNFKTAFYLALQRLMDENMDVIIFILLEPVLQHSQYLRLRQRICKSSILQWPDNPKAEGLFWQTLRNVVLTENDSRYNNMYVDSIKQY
Put plainly: TLR8 inhibition reporter assay (HEK-Blue cells, secreted embryonic alkaline phosphatase reporter). The settings on record: HEK-Blue cells overexpressing human TLR8, stimulated with R848 15.9 μM; read-out: TLR 8 IC50. In a few lines: (§1)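 Agonist-driven SEAP output was measured in HEK-Blue reporter cells carrying human TLR7 (gardiquimod 7.5 μM), TLR8 (R848 15.9 μM) or TLR9 (ODN2006 5 nM). Compounds at 0.05 nM–50 μM final were added 30 min before stimulation at room temperature. After 22 h at 37 °C, percent inhibition was taken against agonist/DMSO wells and a reference inhibitor.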
For orientation: A reporter such as luciferase makes a cellular process visible.

The target in another experiment is T2, human TLR7 (Homo sapiens, UniProt Q9NYK1).
T2 construct: host or cells: HEK-Blue cells (HEK293-derived reporter line)
T2 sequence (Q9NYK1 27-1049): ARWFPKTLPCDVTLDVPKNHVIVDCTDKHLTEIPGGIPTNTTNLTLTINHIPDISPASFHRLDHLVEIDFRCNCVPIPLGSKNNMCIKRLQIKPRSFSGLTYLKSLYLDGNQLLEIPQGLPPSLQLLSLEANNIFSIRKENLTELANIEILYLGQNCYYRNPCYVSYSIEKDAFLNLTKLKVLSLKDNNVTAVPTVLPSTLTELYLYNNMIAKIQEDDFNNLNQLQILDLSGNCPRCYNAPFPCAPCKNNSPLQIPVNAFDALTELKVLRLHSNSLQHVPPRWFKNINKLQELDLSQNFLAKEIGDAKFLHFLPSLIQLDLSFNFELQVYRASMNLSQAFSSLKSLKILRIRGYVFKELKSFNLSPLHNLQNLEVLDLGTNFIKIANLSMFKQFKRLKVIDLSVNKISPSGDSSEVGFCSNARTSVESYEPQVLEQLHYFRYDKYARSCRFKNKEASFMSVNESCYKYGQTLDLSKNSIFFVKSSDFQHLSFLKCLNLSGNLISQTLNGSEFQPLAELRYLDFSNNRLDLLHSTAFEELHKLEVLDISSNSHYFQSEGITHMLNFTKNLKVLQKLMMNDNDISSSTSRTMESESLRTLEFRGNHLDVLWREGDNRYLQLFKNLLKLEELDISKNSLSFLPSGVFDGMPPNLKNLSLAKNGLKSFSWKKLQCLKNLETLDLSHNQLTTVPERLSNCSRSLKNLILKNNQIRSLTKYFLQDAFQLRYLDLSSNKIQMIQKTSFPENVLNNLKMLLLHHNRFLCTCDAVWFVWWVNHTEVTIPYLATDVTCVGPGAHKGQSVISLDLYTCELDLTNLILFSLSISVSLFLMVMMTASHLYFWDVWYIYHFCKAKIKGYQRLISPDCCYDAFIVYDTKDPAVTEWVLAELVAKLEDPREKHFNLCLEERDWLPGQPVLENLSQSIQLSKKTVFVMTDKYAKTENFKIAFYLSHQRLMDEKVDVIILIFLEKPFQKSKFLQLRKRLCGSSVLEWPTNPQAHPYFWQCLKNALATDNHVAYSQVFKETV
Put plainly: TLR7 inhibition reporter assay (HEK-Blue cells, secreted embryonic alkaline phosphatase reporter). Particulars: HEK-Blue cells overexpressing human TLR7, stimulated with gardiquimod 7.5 μM; read-out: TLR 7 IC50. In a few lines: as §1

The next experiment has as its target T3, human TLR9 (Homo sapiens, UniProt Q9NR96).
T3 construct: host or cells: HEK-Blue cells (HEK293-derived reporter line)
T3 sequence (Q9NR96 26-1032): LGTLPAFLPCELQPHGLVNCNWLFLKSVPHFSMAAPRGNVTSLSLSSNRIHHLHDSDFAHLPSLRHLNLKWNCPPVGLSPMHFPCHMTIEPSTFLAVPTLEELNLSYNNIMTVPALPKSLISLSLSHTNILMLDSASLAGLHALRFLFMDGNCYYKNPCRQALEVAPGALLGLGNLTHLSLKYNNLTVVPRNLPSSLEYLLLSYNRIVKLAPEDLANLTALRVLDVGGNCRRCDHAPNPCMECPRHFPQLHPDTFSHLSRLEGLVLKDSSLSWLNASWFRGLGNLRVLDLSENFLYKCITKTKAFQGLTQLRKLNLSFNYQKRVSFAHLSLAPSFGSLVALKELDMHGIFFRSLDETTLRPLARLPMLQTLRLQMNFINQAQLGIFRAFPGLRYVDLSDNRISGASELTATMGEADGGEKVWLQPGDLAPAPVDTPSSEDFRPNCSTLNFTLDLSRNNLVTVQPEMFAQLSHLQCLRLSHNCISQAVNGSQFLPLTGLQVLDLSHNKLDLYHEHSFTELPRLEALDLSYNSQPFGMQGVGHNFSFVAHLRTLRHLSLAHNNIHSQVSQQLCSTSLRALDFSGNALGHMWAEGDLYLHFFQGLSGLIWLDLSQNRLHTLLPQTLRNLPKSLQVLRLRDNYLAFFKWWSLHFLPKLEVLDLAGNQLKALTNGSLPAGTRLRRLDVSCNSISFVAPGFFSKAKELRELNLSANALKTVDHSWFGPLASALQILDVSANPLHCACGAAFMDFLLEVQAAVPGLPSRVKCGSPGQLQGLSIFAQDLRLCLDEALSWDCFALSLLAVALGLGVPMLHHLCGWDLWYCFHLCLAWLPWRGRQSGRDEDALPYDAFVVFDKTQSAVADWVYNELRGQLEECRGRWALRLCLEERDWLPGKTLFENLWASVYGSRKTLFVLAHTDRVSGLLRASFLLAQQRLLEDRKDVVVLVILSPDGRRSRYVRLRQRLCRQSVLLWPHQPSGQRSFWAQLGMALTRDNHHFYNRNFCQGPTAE
Put plainly: TLR9 inhibition reporter assay (HEK-Blue cells, secreted embryonic alkaline phosphatase reporter). Particulars: HEK-Blue cells overexpressing human TLR9, stimulated with ODN2006 5 nM. In a few lines:
as §1

Where [1] appears, read: 22 hour incubation, reporter readout.

In general, pIC50 refers to the negative decadic logarithm of the IC50, by convention in mol/L.

Structures are written as SMILES. pIC50: −log10 of the molar value. Where two headings read alike, the source gives them in different places.

As for `COc1ccc(-c2nc3ccc(C4CCN(C5CCN(C6CC6)CC5)CC4)cc3n2C)cc1OC` [Example 27, 6-(1′-cyclopropyl-[1,4′-bipiperidin]-4-yl)-2-(3,4-dimethoxyphenyl)-1-methyl-1H-benzo[d]imidazole], the pIC50 at human TLR8 was below 4.30; at human TLR7 it was 5.62; against human TLR9 (setting [1]), 6.96; at human TLR9 (read-out: TLR 9 IC50), 6.97.

For the compound `COc1ccc(-c2nc3ccc(C4CCN(C5CCN(CC(C)C)CC5)CC4)cc3[nH]2)cc1OC` [Example 28, 2-(3,4-dimethoxyphenyl)-6-(1′-isobutyl-[1,4′-bipiperidin]-4-yl)-1H-benzo[d]imidazole], the negative-log IC50 (pIC50) at human TLR8 is below 4.30; at human TLR7 it was 5.57; against human TLR9 (setting [1]), 7.72; on human TLR9 (read-out: TLR 9 IC50) it was 7.72.

With `COc1ccc(-c2nc3ccc(C4CCN(C5CCN(C6CC6)CC5)CC4)cc3[nH]2)cc1OC` [Example 29, 6-(1′-cyclopropyl-[1,4′-bipiperidin]-4-yl)-2-(3,4-dimethoxyphenyl)-1H-benzo[d]imidazole], the negative-log IC50 (pIC50) on human TLR8 is below 4.30; at human TLR7 it was 5.18; on human TLR9 (setting [1]) it was 6.96; on human TLR9 (read-out: TLR 9 IC50) it was 7.95.

With `COc1ccc(-c2nc3ccc(C4CCN(C5CCN(CC(C)C)CC5)CC4)cc3n2C(C)C)cc1OC` [Example 30, 2-(3,4-dimethoxyphenyl)-6-(1′-isobutyl-[1,4′-bipiperidin]-4-yl)-1-isopropyl-1H-benzo[d]imidazole], the pIC50 on human TLR8 was below 4.30; at human TLR7, 5.01; on human TLR9 (setting [1]), 6.60; at human TLR9 (read-out: TLR 9 IC50) it was 6.60.

As to `COc1ccc(-c2nc3ccc(C4CCN(C5CCN(C6CC6)CC5)CC4)cc3n2C(C)C)cc1OC` [Example 31, 6-(1′-cyclopropyl-[1,4′-bipiperidin]-4-yl)-2-(3,4-dimethoxyphenyl)-1-isopropyl-1H-benzo[d]imidazole], the pIC50 was below 4.30 on human TLR8, below 4.30 on human TLR7, 6.12 at human TLR9 (setting [1]) and 6.13 on human TLR9 (read-out: TLR 9 IC50).

On to `COc1ccc(-c2nc3ccc(C4CCN(C5CCN(CC(C)C)CC5)CC4)cc3n2CC(F)F)cc1OC` [Example 32, 1-(2,2-difluoroethyl)-2-(3,4-dimethoxyphenyl)-6-(1′-isobutyl-[1,4′-bipiperidin]-4-yl)-1H-benzo[d]imidazole], for which the pIC50 on human TLR8 is below 4.30; on human TLR7, 5.24; on human TLR9 (setting [1]), 6.68; at human TLR9 (read-out: TLR 9 IC50), 6.67.

For the compound `COc1ccc(-c2nc3ccc(C4CCN(C5CCN(C6CC6)CC5)CC4)cc3n2CC(F)F)cc1OC` [Example 33, 6-(1′-cyclopropyl-[1,4′-bipiperidin]-4-yl)-1-(2,2-difluoroethyl)-2-(3,4-dimethoxyphenyl)-1H-benzo[d]imidazole], the pIC50 was 4.46 on human TLR8, 5.09 on human TLR7, 6.17 on human TLR9 (setting [1]) and 6.17 at human TLR9 (read-out: TLR 9 IC50).

On to `COc1ccc(-c2nc3cc(C4CCN(C5CCN(CC(C)C)CC5)CC4)ccc3n2C)cc1OC` [Example 34, 2-(3,4-dimethoxyphenyl)-5-(1′-isobutyl-[1,4′-bipiperidin]-4-yl)-1-methyl-1H-benzo[d]imidazole], for which the negative-log IC50 (pIC50) on human TLR8 was below 4.30; on human TLR7, 4.80; against human TLR9 (setting [1]), 6.77; at human TLR9 (read-out: TLR 9 IC50), 6.76.

On to `COc1ccc(-c2nc3cc(C4CCN(C5CCN(CC(C)C)CC5)CC4)ccc3n2C(C)C)cc1OC` [Example 36, 2-(3,4-dimethoxyphenyl)-5-(1′-isobutyl-[1,4′-bipiperidin]-4-yl)-1-isopropyl-1H-benzo[d]imidazole], for which the pIC50 was 5.34 on human TLR8, 5.18 on human TLR7, 6.44 at human TLR9 (setting [1]) and 6.45 at human TLR9 (read-out: TLR 9 IC50).

Turning to `COc1ccc(-c2nc3cc(C4CCN(C5CCN(C6CC6)CC5)CC4)ccc3n2C(C)C)cc1OC` [Example 37, 5-(1′-cyclopropyl-[1,4′-bipiperidin]-4-yl)-2-(3,4-dimethoxyphenyl)-1-isopropyl-1H-benzo[d]imidazole], the pIC50 is below 4.30 on human TLR8, 5.12 at human TLR7, 6.41 on human TLR9 (setting [1]) and 6.41 at human TLR9 (read-out: TLR 9 IC50).

These data come from patent US12492188B2, “1H-benzo[D]imidazole derivatives as TLR9 inhibitors for the treatment of fibrosis” (BRISTOL-MYERS SQUIBB COMPANY, priority 2020, dated 2025).
